Data on two compounds can be found in patent US20230227499A1, “PRODRUGS OF MITOCHONDRIA-TARGETING OLIGOPEPTIDES” (Stealth Biotherapeutics Inc., priority 2020, published 2023).

Assay [1] concerns isolated perfused guinea pig heart. Kind of assay: Ischemia-reperfusion-induced myocardial stunning in isolated perfused guinea pig heart (Langendorff). Conditions: for myocardial contractile force during ischemia-reperfusion / tolerance of ischemia versus buffer-treated hearts: SS-02 100 nM or SS-31 1 nM perfused 30 min; for myocardial contractile force during ischemia-reperfusion: 30-min global ischemia, then reperfusion (FIG. 2). How it is done: Guinea pig hearts were rapidly isolated, and the aorta was cannulated in situ and perfused in a retrograde fashion with an oxygenated Krebs-Henseleit solution (pH 7.4) at 34° C. The heart was then excised, mounted on a modified Langendorff perfusion apparatus, and perfused at constant pressure (40 cm H20). Contractile force was measured with a small hook inserted into the apex of the left ventricle and the silk ligature tightly connected to a force-displacement transducer. Coronary flow was measured by timed collection of pulmonary artery effluent.
Hearts were perfused with buffer, 2′,6′-Dmt-D-Arg-PheLys-NH2 (SS-02) (100 nM) or D-Arg-Dmt-Lys-Phe-NH2 (SS-31) (1 nM) for 30 min and then subjected to 30 min of global ischemia Reperfusion was carried out with the same solution used prior to ischemia.

The subject of assay [2] is mitochondria. Kind of assay: Cytochrome c release from mitochondria induced by Ca2+. The note with it: FIG. 1C. How it is done: (§1) FIGS. 1A-1C depict that D-Arg-Dmt-Lys-Phe-NH2 (SS-31; MTP-131) inhibits mitochondrial swelling and cytochrome c release. […] Gray line, buffer; red line, SS-31. […] Swelling was measured by light scattering measured at 570 nm. FIG. 1 C depicts the comparison of SS-02 and SS-31 with cyclosporine (CsA) in inhibiting mitochondrial swelling and cytochrome c release induced by Ca2+. The amount of cytochrome c released was expressed as percent of total cytochrome c in mitochondria. Data are presented as mean±s.e., n=3.
(§2) MPT pore opening results in mitochondrial swelling. We examined the effects of (SS-31) on mitochondrial swelling, which was measured using light scattering monitored at 570 nm.

Assay [3] has as its system mitochondria. Briefly: Mitochondrial swelling induced by Ca2+, light scattering at 570 nm. Conditions: pretreatment with SS-31 50 μM, light scattering at 570 nm (FIG. 1B). On the procedure:
as §1, §2

The next assay deals with isolated mitochondria. Briefly: Mitochondrial permeability transition (MPT) induced by Ca2+ in isolated mitochondria. The note with it: pretreatment of isolated mitochondria with SS-31 10 μM (FIG. 1A). How it is done:
as §1, §2

Setting [4] is: 30 min global ischemia, then reperfusion.

Entries after “also recorded” stand apart in the source; their conditions may differ.

On to 2′,6′-Dmt-D-Arg-PheLys-NH2 [SS-02], for which the “myocardial contractile force during ischemia-reperfusion” value in assay [1] is reported as “protects myocardial contractile force”. Moreover, the “tolerance of ischemia versus buffer-treated hearts” value in assay [1] (setting [4]) was “tolerated ischemia much better than buffer-treated hearts”.
`Cc1cc(O)cc(C)c1C[C@H](CC(=O)[C@H](N)CCCNC(=N)N)C(=O)N[C@@H](CCCCN)C(=O)N[C@@H](Cc1ccccc1)C(N)=O` [SS-31, D-Arg-Dmt-Lys-Phe-NH2]: the “myocardial contractile force during ischemia-reperfusion” value in assay [1] is recorded as “protects myocardial contractile force”. In addition, the “tolerance of ischemia versus buffer-treated hearts” value in assay [1] (setting [4]) was “tolerated ischemia much better than buffer-treated hearts”. In assay [1] (SS-31 1 nM, 30 min global ischemia, then reperfusion), the “inhibition of cardiac stunning” value was “complete inhibition of cardiac stunning”. Moreover, the heart rate entry in assay [1] (SS-31 1 nM, ischemia-reperfusion) is on record as “no decrease in heart rate”. Besides, the “coronary flow during reperfusion” value in assay [1] (SS-31 1 nM, timed collection of pulmonary artery effluent) is listed as “well-sustained throughout reperfusion”. Besides, the “cytochrome c release induced by Ca2+” value in the assay on mitochondria [2] was “has the same ability to protect against”. Moreover, in the assay with mitochondria [3], the “mitochondrial swelling induced by Ca2+” value is “has the same ability to protect against; also recorded: inhibited mitochondrial swelling”. In the assay on isolated mitochondria, the “onset of MPT induced by Ca2+” value is reported as “has the same ability to protect against MPT; also recorded: prevents onset of MPT”.
